Here are results for one molecule from US8207211B2, “Photosensitizers for targeted photodynamic therapy” (The General Hospital Corporation, priority 2005, dated 2012).

Data set [1] in a line: Octanol-water distribution coefficient. Type of data set: physicochemical. The conditions noted are these: 1-octanol/DI water, absorbance at 330 nm. As to the method:
Each compound was dissolved in a minimum amount of DMSO: CI1 (0.9 mg in 200 μl), CI2 (5.3 mg in 200 μl), CI3 (5.4 mg in 200 μl). Ten ml of DI water and 10 ml of 1-octanol were added in each compound and vigorously shaken for 2 min. and the vials of the compounds were settled down overnight. The phases were separated and UV-spectra of each phase were analyzed. Distribution coefficient of each compound was determined using absorbance of aqueous phases and organic phases at 330 nm.

For data set [2], the system named is L929 murine fibroblast line. Kind of data set: Mammalian cell toxicity, MTT viability assay after illumination. The format is cell-based, mouse. The source says:
Experiments to test the effect of functionalized fullerenes on mammalian cells can be performed in a suitable mammalian cell line. One such cell line is the L929 murine fibroblast line (ATCC #CCL1), a spontaneously transformed immortalized cell line established from the normal subcutaneous areolar and adipose tissue of a male C3H/An mouse (Earle, W. R., Schilling, E. L., Stark, T. H., Straus, N. P., Brown, M. F., and Shelton, E. (1943). Production of malignancy in vitro. IV. The mouse fibroblast cultures and changes seen in the living cells. J. Natl. Cancer Inst. 4, 165-212). In a suitable assay, these cells were cultured in Dulbecco's modified Eagle's medium (Sigma) at 37° C. in a humidified atmosphere containing 5% CO2. The medium is preferably modified by using 4 mM L-glutamine (containing 1.5 g/l sodium bicarbonate and 4.5 g/l glucose), 10% fetal bovine serum (FBS), 100 U/ml penicillin, and […] streptomycin. Cells were plated in 96-well cell culture plates, at a density of about 300 cells/well, and are allowed to attach for 24 hr.
Fullerenes and other PS, e.g., TBO, were added at a concentration of about 10 μM in 200 μl complete medium per well. After 10 min, fresh medium is added, and the cultures were illuminated with white light (for fullerenes) or with red light (for TBO). At the completion of the illumination period, cells were returned to the incubator for 24 hr. Cell viability can be determined, for example, by using the MTT-microculture tetrazolium assay, a method of assessing cellular response to PDT (Merlin, J. L., Azzi, S., Lignon, D., Ramacci, C., Zeghari, N., and Guillemin, F. (1992). MTT assays allow quick and reliable measurement of the response of human tumour cells to photodynamic therapy. Eur. J. Cancer 28A, 1452-1458. This assay involves the reduction of a colorless substrate, i.e., 3-[4,5-Dimethylthiazol-2-yl]-diphenyltetrazolium bromide (Sigma, St. Louis, […].) to an insoluble dark-blue formazan product which is formed in proportion to the amount of succinate dehydrogenase activity in the mitochondria of living cells. After incubation with MTT for periods ranging from 4 to 8 hr, the medium was aspirated from each well, and […] DMSO is added. The absorbance at 570 nm was read by a microplate reader, e.g., a Spectra Max™ 340 PC (Molecular Devices, Sunnyvale, Calif.). The fraction of cells surviving was calculated by dividing the mean absorbances of formazan produced from PDT-treated cells by the mean absorbances from dark controls incubated with PS and kept at room temperature for periods of time equal to the irradiation times.
A general note: Tetrazolium assays rely on reduction of a dye to a coloured formazan, in cell work by metabolically active cells.

Data set [3] deals with C. albicans. Kind of data set: Photodynamic inactivation (PDI), CFU survival, white light (red light for TBO). As to conditions: 10 μM, 10 min. Type of data set: cell-based, Candida albicans. As to the method: Staphylococcus aureus (ATCC #35556), Escherichia coli (ATCC #25922), and Pseudomonas aeruginosa (ATCC #BAA-47; PAO1) were cultured in brain-heart infusion (BHI) broth (Difco, BD Diagnosttic Systems, Sparks, Md.) at 37° C. in aerobic conditions in a shaker at 150 rpm. Candida albicans (ATCC #18804) is grown in YM broth (Difco). Exponential cultures obtained by reculturing stationary overnight precultures were used for experiments.
E. coli, P. aeruginosa, and S. aureus are grown in fresh medium for approximately 1 hr to a density of about 10^8 cells/ml; the OD values at 650 nm are 0.6, 0.8, and 0.8, respectively. C. albicans is grown for approximately 4 hr to an approximate density of 10^8 cells/ml, corresponding to an OD of 6 at 650 nm (measured at 10-fold dilution). Cells were used for experiments in the mid-log growth phase.
A noncoherent lamp with filtered liquid light guides, e.g., a LumaCare™ LC122 lamp (MBG Technologies, Inc., Newport Beach, Calif.) was used to provide illumination of PS. More specifically, for illumination of fullerenes, a broad-band white light band pass filter (400-700 nm) was used, whereas for TBO, a band pass filter at 620-650 nm was used. The lamp was adjusted to give a uniform spot of about 4 cm diameter with an irradiance of 200 mW/cm^2, as measured with a power meter, e.g., a model DMM 199 meter with 201 Standard head (Coherent, Santa Clara, Calif.).
Typically, derivatized fullerenes prepared as described above are dissolved in DMSO to provide stock solutions having final concentrations of about 5 mM. […] All stock solutions were stored in the dark at room temperature.
In some experiments, for example in studies described in Examples below, suspensions of S. aureus cells (10^8 per ml) were incubated with derivatized fullerenes such as NI-1-3 and CI1-3 at a concentration of 100 μM in PBS at room temperature for 10 min. In other experiments, the bacterial suspension was centrifuged (4000×g for 10 min) after incubation and resuspended in fresh PBS before illumination; the latter procedure was referred to herein as a “wash.” E. coli, P. aeruginosa, and C. albicans were used at concentrations of about 10^8 cells per ml.
Illumination was carried out from above on microbial cell suspensions in wells of a 24-well plate. Aliquots were removed at times corresponding to the delivery of calculated fluences of light, and were serially diluted in PBS and streaked on square BHI or YM agar plates according to the method of Jett et al. (Jett, B. D., Hatter, K. L., Huycke, M. M., and Gilmore, M. S. (1997). Simplified agar plate method for quantifying viable bacteria. Biotechniques 23, 648-650). Survival fractions were calculated with reference to cells incubated in PBS alone. Values on killing curves at 0 J/cm^2 represent the dark toxicity of the fullerenes or other PS tested. Control cells were treated with light and no PS and also analyzed for viability.

The structures appear in SMILES notation.

Regarding `C[N+]1(C)Cc2c(c3c4ccc5c6ccc7c8ccc9c%10c%11c%12c(c2c2c3c3c4c5c4c6c7c5c8c9c%11c6c(c%122)c3c4c56)C2C[N+](C)(C)CC%102)C1` (stereo not drawn) [CI2], in data set [1], the “Kow (octanol-water partition constant)” value came out at 1.28 and the LogKow is given as 0.11. The “toxicity to L929 mammalian cells at fluences used for PDI of pathogens” value in data set [2] (10 μM, 10 min, white light up to 50 J/cm^2) is given as “not killed”. In data set [2] (L929, high fluences), the “toxicity to mammalian cells at high fluences relative to TBO” value was “considerably less toxic”. Further, the “PDT activity against C. albicans” value in data set [3] (white light up to 50 J/cm^2) is “effectively killed”. Also, the “relative effectiveness in killing C. albicans” value in data set [3] (with a wash, white light) is given as “much better than CI1”.
